Measured values: patent EP4810040A2, “INHIBITORS OF APOL1 AND METHODS OF USING SAME” (priority 2020, dated 2022)

Molecular target: T1, APOL1 G1 (Homo sapiens, UniProt O14791, I384M/S342G)
T1 sequence (O14791 28-398 S342G/I384M): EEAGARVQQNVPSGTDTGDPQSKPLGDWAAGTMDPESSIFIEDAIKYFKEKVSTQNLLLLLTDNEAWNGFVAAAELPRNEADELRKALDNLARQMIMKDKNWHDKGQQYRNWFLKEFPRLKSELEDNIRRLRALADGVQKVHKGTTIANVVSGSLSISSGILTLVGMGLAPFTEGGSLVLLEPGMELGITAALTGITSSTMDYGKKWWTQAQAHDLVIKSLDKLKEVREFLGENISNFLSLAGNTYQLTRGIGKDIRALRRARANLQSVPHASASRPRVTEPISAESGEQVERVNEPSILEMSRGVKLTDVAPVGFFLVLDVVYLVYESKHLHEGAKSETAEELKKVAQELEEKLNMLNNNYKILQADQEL
Assay: MultiTox-Fluor Multiplex Cytotoxicity Assay, tet-inducible APOL1 G1 T-REx-HEK293 cells
Format: cell-based
Design: expressed in transfected cells; host or cells: T-REx HEK293, clone G1 DC3.25 (pAAVS1-Puro-APOL1 G1)
Settings: for IC90: HEK293, Multi-Tox Assay, APOL1 variant (G0/G1/G2) of the HEK293 cells not given, read-out: Multi-Tox Assay IC90; for Emax / Multi-Tox Assay Max Activity (%): Multi-Tox Assay, APOL1 variant not given; for Emax: read-out: Multi-Tox Assay Max Activity (%)
Experimental: The MultiTox-Fluor Multiplex Cytotoxicity Assay is a single-reagent-addition, homogeneous, fluorescence assay that measures the number of live and dead cells simultaneously in culture wells. The assay measures cell viability and cytotoxicity by detecting two distinct protease activities. The live-cell protease activity is restricted to intact viable cells and is measured using a fluorogenic, cell-permeant peptide glycyl-phenylalanylamino fluorocoumarin (GF-AFC) substrate. The substrate enters intact cells, where it is cleaved to generate a fluorescent signal proportional to the number of living cells. […] A second, cell-impermeant, fluorogenic peptide substrate (bis-AAF-R110 Substrate) is used to measure dead-cell protease that has been released from cells that have lost membrane integrity. A ratio of dead to live cells is used to normalize data.
Briefly, the tet-inducible transgenic APOL1 T-REx-HEK293 cell lines were incubated with 50 ng/mL tet to induce APOL1 in the presence of 3-(2-(4-fluorophenyl)-1H-indol-3-yl)-N-((3S,4R)-4-hydroxy-2-oxopyrrolidin-3-yl)propenamide at […], 0.0045, 0.0015, 0.0005 µM in duplicate for 24 hours in a humidified 37°C incubator. The MultiTox reagent was added to each well and placed back in the incubator for an additional 30 minutes. The plate was read on the EnVision plate reader. A ratio of dead to live cells was used to normalize, and data was imported, analyzed and fit using Genedata Screener (Basel, Switzerland) software. Data was normalized using percent of control, no tet (100% viability), and 50 ng/mL tet treated (0% viability),and fit using Smart Fit. The reagents, methods, and complete protocol for the MultiTox assay are described below. Table 42. Reagents Used in the Multi-Tox Assay
Human embryonic kidney (HEK293) cell lines containing a tet-inducible expression system (T-REx™; Invitrogen, Carlsbad, CA) and Adeno-associated virus site 1 pAA VS1-Puro-APOL1 G0 or pAAVS1-Puro-APOL1 G1 or pAAVS1-Puro-APOL1 G2 Clones G0 DC2.13, G1 DC3.25, and G2 DC4.44 were grown in a T-225 flask at ~90% confluency in cell growth media (DMEM, 10% Tet-free FBS, 2 mM L-glutamine, 100 Units/mL penicillin-streptomycin, 5 µg/mL blasticidin S HCl, 1 µg/mL puromycin dihydrochloride). Cells were washed with DPBS and then trypsinized to dissociate from the flask. Media was used to quench the trypsin, cells were then pelleted at 200g and resuspended in fresh cell assay media (DMEM, 2% Tet-free FBS, 2 mM L-glutamine, 100 Units/mL penicillin-streptomycin). Cells were counted and diluted to 1.17 x 10^6 cells/mL. 20 µL of cells (23,400/well) were dispensed to every well of a 384-well Poly-D-Lysine coated plate using the Multidrop dispenser. The plates were then incubated at room temperature for one hour.
Tetracycline is needed to induce APOL1 expression. 1 mg/mL tet stock in water was diluted to 250 ng/mL (5X) in cell assay media. 60 µL of cell assay media (no tet control) was dispensed in columns 1 and 24, and 60 µL of 5X tet was dispensed in 384-PP-round bottom plate in columns 2 to 23 with the Multidrop dispenser.
Assay ready plates from the Global Compound Archive were ordered using template 384_APOL1Cell_DR10n2_50uM_v3. Compounds were dispensed at 200 nL in DMSO. The final top concentration was 10 µM with a 10 point 3-fold dilution in duplicate in the MultiTox assay.
20 µL were transferred from the 5X tet plate to the ARP and mixed, then 5 µL of 5X tet and the compounds were transferred to the cell plate and mixed using the Bravo. The cell plate was placed in the humidified 37°C 5% CO2 incubator for 24 hours.
The MultiTox-Fluor Multiplex Cytotoxicity Assay was performed in accordance with the manufacturer's protocol. […]

| Structure (SMILES) | IC90 [nM] | Emax [%] | Multi-Tox Assay Max Activity (%) |
| --- | --- | --- | --- |
| C[C@H]1C[C@@]2(C[C@@H](c3c[nH]nn3)N1)OCCc1cc(Cl)sc12 (racemic) [Compound 72] | < 50 | 99.7 |  |
| Cc1cc([C@@H]2C[C@]3(C[C@H](C)N2)OCCc2cc(Cl)sc23)[nH]n1 (racemic) [Compound 73] | < 50 | 99.8 |  |
| C[C@H]1C[C@@]2(C[C@@H](c3cn4c(n3)COCC4)N1)OCCc1cc(Cl)sc12 (racemic) [Compound 74] | < 50 | 99.2 |  |
| C[C@H]1C[C@@]2(C[C@@H](c3cnc(N(C)C)nc3)N1)OCCc1cc(Cl)sc12 (racemic) [Compound 75] | < 50 | 100 |  |
| Cc1ccc([C@@H]2C[C@]3(C[C@H](C)N2)OCCc2cc(Cl)sc23)nc1 (racemic) [Compound 77] | < 50 | 99 |  |
| C[C@H]1C[C@@]2(C[C@@H](c3ccc(S(N)(=O)=O)cc3F)N1)OCCc1cc(Cl)sc12 (racemic) [Compound 78] | < 50 | 99.7 |  |
| C[C@H]1C[C@@]2(C[C@@H](c3cocn3)N1)OCCc1cc(Cl)sc12 (racemic) [Compound 79] | 50 to 500 | 99.7 |  |
| C[C@H]1C[C@@]2(C[C@@H](c3ccc(=O)n(C)c3)N1)OCCc1cc(Cl)sc12 (racemic) [Compound 80] | < 50 | 99.7 |  |
| C[C@H]1C[C@@]2(C[C@@H](c3ccccc3)N1)OCCc1cc(Cl)sc12 (racemic) [Compound 81] | < 50 | 99.7 |  |
| Cc1ncc([C@@H]2C[C@]3(C[C@H](C)N2)OCCc2cc(Cl)sc23)cn1 (racemic) [Compound 82] | < 50 | 99.7 |  |
| C[C@H]1C[C@@]2(C[C@@H](c3ccccn3)N1)OCCc1cc(Cl)sc12 (racemic) [Compound 83] | < 50 | 99 |  |
| COc1ccc2[nH]c([C@@H]3C[C@]4(C[C@H](C)N3)OCCc3cc(Cl)sc34)cc2n1 (racemic) [Compound 84] | < 50 | 99.8 |  |
| C[C@H]1C[C@@]2(C[C@@H](c3c[nH]cn3)N1)OCCc1cc(Cl)sc12 (racemic) [Compound 85] | < 50 | 99.3 |  |
| C[C@H]1C[C@@]2(C[C@@H](c3cc(C4CC4)no3)N1)OCCc1cc(Cl)sc12 (racemic) [Compound 87] | < 50 | 99.3 |  |
| C[C@H]1C[C@@]2(C[C@@H](c3ccc(N(C)C)nc3)N1)OCCc1cc(Cl)sc12 (racemic) [Compound 89] | < 50 | 99.3 |  |
| COCCn1cc([C@@H]2C[C@]3(C[C@H](C)N2)OCCc2cc(Cl)sc23)cn1 (racemic) [Compound 90] | < 50 | 100 |  |
| C[C@H]1C[C@@]2(C[C@@H](c3cccnn3)N1)OCCc1cc(Cl)sc12 (racemic) [Compound 92] | < 50 | 100 |  |
| C[C@H]1C[C@@]2(C[C@@H](c3ccnnc3)N1)OCCc1cc(Cl)sc12 (racemic) [Compound 93] | < 50 | 99.3 |  |
| Cc1ncc([C@@H]2C[C@]3(C[C@H](C)N2)OCCc2cc(Cl)sc23)o1 (racemic) [Compound 94] | < 50 | 100 |  |
| C[C@H]1C[C@@]2(C[C@@H](c3cnc(NC(C)(C)CO)nc3)N1)OCCc1cc(Cl)sc12 (racemic) [Compound 95] | < 50 | 99.8 |  |

| Structure (SMILES) | IC90 [nM] | Emax [%] | Multi-Tox Assay Max Activity (%) |
| --- | --- | --- | --- |
| C[C@H]1C[C@@]2(C[C@@H](c3ccon3)N1)OCCc1cc(Cl)sc12 (racemic) [Compound 96] | < 50 | 99.8 |  |
| Cc1cc([C@@H]2C[C@]3(C[C@H](C)N2)OCCc2cc(Cl)sc23)nn1C (racemic) [Compound 98] | < 50 |  |  |
| COc1ccc([C@@H]2C[C@]3(C[C@H](C)N2)OCCc2cc(Cl)sc23)cc1O (racemic) [Compound 99] | < 50 |  |  |
| C[C@H]1C[C@@]2(C[C@@H](c3cnn(C4CCOCC4)c3)N1)OCCc1cc(Cl)sc12 (racemic) [Compound 100] | < 50 |  | 99.3 |
| C[C@H]1C[C@@]2(C[C@@H](c3cnccn3)N1)OCCc1cc(Cl)sc12 (racemic) [Compound 101] | < 50 |  | 100.0 |
| CCOc1cc([C@@H]2C[C@]3(C[C@H](C)N2)OCCc2cc(Cl)sc23)ccc1O (racemic) [Compound 102] | < 50 |  | 99.8 |
| C[C@H]1C[C@@]2(C[C@@H](c3cnn(CC(C)(CO)CO)c3)N1)OCCc1cc(Cl)sc12 (racemic) [Compound 103] | < 50 |  | 99.6 |
| Cc1nc([C@@H]2C[C@]3(C[C@H](C)N2)OCCc2cc(Cl)sc23)co1 (racemic) [Compound 104] | 50 to 500 |  | 99.3 |
| COc1ccccc1-c1ncc([C@@H]2C[C@]3(C[C@H](C)N2)OCCc2cc(Cl)sc23)cn1 (racemic) [Compound 105] | 50 to 500 |  | 99.3 |
| COCc1cc([C@@H]2C[C@]3(C[C@H](C)N2)OCCc2cc(Cl)sc23)no1 (racemic) [Compound 106] | < 50 |  | 99.7 |
| CCOc1ccc([C@@H]2C[C@]3(C[C@H](C)N2)OCCc2cc(Cl)sc23)cc1O (racemic) [Compound 107] | < 50 |  | 99.7 |
| Cc1cc([C@@H]2C[C@]3(C[C@H](C)N2)OCCc2cc(Cl)sc23)ccc1O (racemic) [Compound 108] | 50 to 500 |  |  |
| C[C@H]1C[C@@]2(C[C@@H](c3cccc(C(N)=O)c3)N1)OCCc1cc(Cl)sc12 (racemic) [Compound 109] | 50 to 500 |  | 100.0 |
| COc1nccc([C@@H]2C[C@]3(C[C@H](C)N2)OCCc2cc(Cl)sc23)n1 (racemic) [Compound 110] | 50 to 500 |  | 99.2 |
| CCC(O)Cn1cc([C@@H]2C[C@]3(C[C@H](C)N2)OCCc2cc(Cl)sc23)nn1 (mixture of isomers) [Compound 111] | 50 to 500 |  | 99.3 |
| C[C@H]1C[C@@]2(C[C@@H](c3ccnc(O)c3)N1)OCCc1cc(Cl)sc12 (racemic) [Compound 112] | < 50 |  | 100.0 |
| CC(=O)Nc1cccc([C@@H]2C[C@]3(C[C@H](C)N2)OCCc2cc(Cl)sc23)c1 (racemic) [Compound 113] | 50 to 500 |  | 100.0 |
| C[C@H]1C[C@@]2(C[C@@H](c3cccc(NS(C)(=O)=O)c3)N1)OCCc1cc(Cl)sc12 (racemic) [Compound 115] | 50 to 500 |  | 99.3 |
| Cc1nccc([C@@H]2C[C@]3(C[C@H](C)N2)OCCc2cc(Cl)sc23)n1 (racemic) [Compound 116] | 50 to 500 |  | 99.4 |
